How the values were obtained:
Rheb = target: T1, Rheb (Homo sapiens, UniProt Q15382); experiment: Rheb GTP Binding Domain Inhibition Assay; conditions: read-out: Rheb: % inh.
T1 construct: made in house
Method: Protocol for Cdc42 and Rheb GTP Binding Domain Inhibition Assay
The following method was developed as specific assay for cdc42 and Rheb proteins.
• 25 mM Tris-HCl, pH 7.4 • 27 mM KCl • 137 mM NaCl • 1 mM MgCl2 • 1 mM DTT Buffer-II: • 50 mM Tris-HCl, pH 7.0 • 1 mM MgCl2 • 1 mM DTT
The small GTPases proteins cdc42 and Rheb were expressed as His-tagged proteins. For the assay, the cdc42 and Rheb purified small GTPases proteins were diluted in Buffer-I or Buffer-II to a final concentration of 10-30 μg/mL. 200 μL of each diluted protein was added to a nickel-coated 96-well plate and incubated overnight at […]. Then the protein solution was discarded and 200 μL of Buffer-I or Buffer-II was added to each well in the presence of 1% DMSO. Compounds to be tested were added to the protein-coated wells at final concentration of 20 μM, and incubated for 3 hours at room temperature with and without 10-30 μg/mL of Sos added to the final hour of the incubation. When performing IC50 measurements a serial dilution of all tested concentrations was added. Then Cy3-GTP or Cy5-GTP was added to each well to a final concentration of 100 nM. The labeled GTP was incubated for 45 minutes at room temperature. Following GTP incubation, wells were washed 3× in Buffer-I or Buffer-II and 200 μL of Buffer-I or Buffer-II was added to each well. Following washes, the amount of bound labeled-GTP was measured using a SpectraMax M3 (Molecular Devices).

MAPK p38 phosphorylation = experiment: MAPK p38 Activation Assay (western blot), Panc-1; type: cell-based, human; conditions: at 10 μM, Panc-1 pancreatic cancer cell line; starred symbols = activation
Method in brief: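 Panc-1 cells (KRas G12D) were treated with compound for 6 h at 37 °C, at 10 μM or as serial dilutions for IC50, with 0.3% DMSO. Method 1 used overnight serum-starved cells (0.5% FBS) stimulated with 1.5 ng/ml EGF for 15 min; Method 2 used unstimulated cells in 10% FBS. Phospho-p38 (Thr180/Tyr182) was detected by western blot.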

Erk1/2 phosphorylation = experiment: Erk1/2 Phosphorylation Assay (western blot), Panc-1; type: cell-based, human; conditions: at 10 μM, * = activation
Method in brief: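 KRas G12D Panc-1 cells were treated 6 h at 37° C with compound at 10 μM or serial dilutions for IC50 (0.3% DMSO). In method 1, cells were serum-starved overnight (0.5% FBS) and then given 1.5 ng/ml EGF for 15 min. In method 2, cells stayed in 10% FBS without stimulation. Lysate phospho-Erk1/2 (Thr202/Tyr204) was read by western blot.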

T1 sequence (Q15382 whole entry, the tested form may be a part): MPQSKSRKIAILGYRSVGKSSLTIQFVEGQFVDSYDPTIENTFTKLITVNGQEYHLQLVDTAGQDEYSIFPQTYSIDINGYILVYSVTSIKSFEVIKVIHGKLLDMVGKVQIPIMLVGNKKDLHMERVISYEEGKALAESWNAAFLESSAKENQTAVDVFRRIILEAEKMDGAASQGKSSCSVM

| inhibition at 20 µM (Rheb) | Compound | % inh of MAPK p38 in Panc-1 (MAPK p38 phosphorylation) | % inh of Erk1/2 phosphorylation in Panc-1 (Erk1/2 phosphorylation) |
| --- | --- | --- | --- |
| 1 to 25% | COc1cccc(-c2cn3nc(-c4nccn4C)nc(N[C@H]4C[C@H](OC)C4)c3c2-c2ccn(C)n2)c1F [Compound 47, 6-(2-Fluoro-3-methoxyphenyl)-N-((1r,3r)-3-methoxycyclobutyl)-2-(1-methyl-1H-imidazol-2-yl)-5-(1-methyl-1H-pyrazol-3-yl)pyrrolo[2,1-f][1,2,4]triazin-4-amine] | F (F = 31-74% inhibition) | C (50-84% inhibition) |
| 1 to 25% | Cc1c(-c2ccn(C(C)C)n2)cn2nc(-c3nccn3C)nc(Nc3cc(C4CC4)no3)c12 [Compound 69, 3-Cyclopropyl-N-(6-(1-isopropyl-1H-pyrazol-3-yl)-5-methyl-2-(1-methyl-1H-imidazol-2-yl)pyrrolo[2,1-f][1,2,4]triazin-4-yl)isoxazol-5-amine] | H* (H* ≥ 100% activation) | D* (85-100% activation) |
| 76 to 100% | COc1ccnc(Nc2nc(-c3nccn3C)nn3cc(-c4ccn(C(C)C)n4)c(C)c23)n1 [Compound 53, 6-(1-Isopropyl-1H-pyrazol-3-yl)-N-(4-methoxypyrimidin-2-yl)-5-methyl-2-(1-methyl-1H-imidazol-2-yl)pyrrolo[2,1-f][1,2,4]triazin-4-amine] | H* (H* ≥ 100% activation) | D (85-100% inhibition) |
| 76 to 100% | Cc1c(-c2ccn(C(C)C)n2)cn2nc(-c3nccn3C)nc(Nc3ccncn3)c12 [Compound 55, 6-(1-Isopropyl-1H-pyrazol-3-yl)-5-methyl-2-(1-methyl-1H-imidazol-2-yl)-N-(pyrimidin-4-yl)pyrrolo[2,1-f][1,2,4]triazin-4-amine] | H* (H* ≥ 100% activation) | A (1-25% inhibition) |
| 0% | COc1ccc(Nc2nc(-c3nccn3C)nn3cc(-c4ccn(C(C)C)n4)c(C)c23)nn1 [Compound 74, 6-(1-Isopropyl-1H-pyrazol-3-yl)-N-(6-methoxypyridazin-3-yl)-5-methyl-2-(1-methyl-1H-imidazol-2-yl)pyrrolo[2,1-f][1,2,4]triazin-4-amine] | – | D* (85-100% activation) |
| 76 to 100% | COc1ccnc(Nc2nc(-c3nccn3C)nn3cc(-c4ccn(C(C)C)n4)c(C)c23)c1 [Compound 58, 6-(1-Isopropyl-1H-pyrazol-3-yl)-N-(4-methoxypyridin-2-yl)-5-methyl-2-(1-methyl-1H-imidazol-2-yl)pyrrolo[2,1-f][1,2,4]triazin-4-amine] | G* (G* = 75-99% activation) | D (85-100% inhibition) |
| 50 to 75% | Cc1c(-c2ccn(C(C)C)n2)cn2nc(-c3nccn3C)nc(Nc3ccn(C(C)C)n3)c12 [Compound 72, N,6-bis(1-Isopropyl-1H-pyrazol-3-yl)-5-methyl-2-(1-methyl-1H-imidazol-2-yl)pyrrolo[2,1-f][1,2,4]triazin-4-amine] | H* (H* ≥ 100% activation) | D* (85-100% activation) |
| 0% | Cc1c(-c2ccn(C(C)C)n2)cn2nc(-c3nccn3C)nc(Nc3cnccn3)c12 [Compound 62, 6-(1-Isopropyl-1H-pyrazol-3-yl)-5-methyl-2-(1-methyl-1H-imidazol-2-yl)-N-(pyrazin-2-yl)pyrrolo[2,1-f][1,2,4]triazin-4-amine] | H* (H* ≥ 100% activation) | A (1-25% inhibition) |
| 50 to 75% | COc1ccc(-c2cn3nc(-c4nccn4C)nc(Nc4cc(OC)ncn4)c3c2C)cn1 [Compound 66, 6-(6-Methoxypyridin-3-yl)-N-(6-methoxypyrimidin-4-yl)-5-methyl-2-(1-methyl-1H-imidazol-2-yl)pyrrolo[2,1-f][1,2,4]triazin-4-amine] | H* (H* ≥ 100% activation) | C (50-84% inhibition) |
| 50 to 75% | COc1cncnc1Nc1nc(-c2nccn2C)nn2cc(-c3ccn(C(C)C)n3)c(C)c12 [Compound 73, 6-(1-Isopropyl-1H-pyrazol-3-yl)-N-(5-methoxypyrimidin-4-yl)-5-methyl-2-(1-methyl-1H-imidazol-2-yl)pyrrolo[2,1-f][1,2,4]triazin-4-amine] | – | D* (85-100% activation) |
| 50 to 75% | COc1cc(Nc2nc(-c3nccn3C)nn3cc(-c4cccnc4)c(C)c23)ncn1 [Compound 48, N-(6-Methoxypyrimidin-4-yl)-5-methyl-2-(1-methyl-1H-imidazol-2-yl)-6-(pyridin-3-yl)pyrrolo[2,1-f][1,2,4]triazin-4-amine] | – | A (1-25% inhibition) |
| 76 to 100% | Cc1c(-c2ccn(C(C)C)n2)cn2nc(-c3nccn3C)nc(Nc3ccn(C)n3)c12 [Compound 61, 6-(1-Isopropyl-1H-pyrazol-3-yl)-5-methyl-2-(1-methyl-1H-imidazol-2-yl)-N-(1-methyl-1H-pyrazol-3-yl)pyrrolo[2,1-f][1,2,4]triazin-4-amine] | H* (H* ≥ 100% activation) | A* (1-25% activation) |
| 50 to 75% | Cc1c(-c2ccn(C(C)C)n2)cn2nc(-c3nccn3C)nc(Nc3nnc(C4CC4)o3)c12 [Compound 67, 5-Cyclopropyl-N-(6-(1-isopropyl-1H-pyrazol-3-yl)-5-methyl-2-(1-methyl-1H-imidazol-2-yl)pyrrolo[2,1-f][1,2,4]triazin-4-yl)-1,3,4-oxadiazol-2-amine] | H* (H* ≥ 100% activation) | D (85-100% inhibition) |
| 76 to 100% | Cc1c(-c2ccn(C(C)C)n2)cn2nc(-c3nccn3C)nc(Nc3cc(C4CC4)n[nH]3)c12 [Compound 68, N-(3-Cyclopropyl-1H-pyrazol-5-yl)-6-(1-isopropyl-1H-pyrazol-3-yl)-5-methyl-2-(1-methyl-1H-imidazol-2-yl)pyrrolo[2,1-f][1,2,4]triazin-4-amine] | – | D* (85-100% activation) |
| 26 to 49% | COc1cc(Nc2nc(-c3nccn3C)nn3cc(-c4ccncc4)c(C)c23)ncn1 [Compound 49, N-(6-Methoxypyrimidin-4-yl)-5-methyl-2-(1-methyl-1H-imidazol-2-yl)-6-(pyridin-4-yl)pyrrolo[2,1-f][1,2,4]triazin-4-amine] | – | B* (26-49% activation) |
| – | COc1cccc(Nc2nc(-c3nccn3C)nn3cc(-c4ccn(C(C)C)n4)c(-c4ccccc4)c23)n1 [Compound 23, 6-(1-Isopropyl-1H-pyrazol-3-yl)-N-(6-methoxypyridin-2-yl)-2-(1-methyl-1H-imidazol-2-yl)-5-phenylpyrrolo[2,1-f][1,2,4]triazin-4-amine] | H* (H* ≥ 100% activation) | D (85-100% inhibition) |
| – | COCCNc1nc(-c2nccn2C)nn2cc(-c3cccc(OC)c3Cl)c(-c3ccccc3)c12 [Compound 29, 6-(2-Chloro-3-methoxyphenyl)-N-(2-methoxyethyl)-2-(1-methyl-1H-imidazol-2-yl)-5-phenylpyrrolo[2,1-f][1,2,4]triazin-4-amine] | H (H = 100% inhibition) | D (85-100% inhibition) |
| 26 to 49% | COc1cc(-c2cn3nc(-c4nccn4C)nc(Nc4cc(OC)ncn4)c3c2C)ccn1 [Compound 50, 6-(2-Methoxypyridin-4-yl)-N-(6-methoxypyrimidin-4-yl)-5-methyl-2-(1-methyl-1H-imidazol-2-yl)pyrrolo[2,1-f][1,2,4]triazin-4-amine] | – | B* (26-49% activation) |
| – | CO[C@H]1CC[C@@H](Nc2nc(-c3nccn3C)nn3cc(-c4ccn(C(C)C)n4)c(C(C)C)c23)C1 (racemic) [Compound 36, rac 5-Isopropyl-6-(1-isopropyl-1H-pyrazol-3-yl)-N-((1R,3S)-3-methoxycyclopentyl)-2-(1-methyl-1H-imidazol-2-yl)pyrrolo[2,1-f][1,2,4]triazin-4-amine] | H* (H* ≥ 100% activation) | C (50-84% inhibition) |
